Tested on: human primary CD8^+T cells (CD3^+CD8^+)
Assay: In-vitro induction and amplification of CD8+TSCM in culture media A to E (cell count, flow cytometry CD45RA, CCR7, CD95)
Assay type: cell-based
Conditions: GSK-3β inhibitor
Description: 1) Pre-prepared human primary T cells (Shanghai Sinobay Bio-Tech Co., Ltd., hereinafter referred to as “Sinobay”) were selected by a magnetic bead negative selection method to obtain human primary CD8^+T cells (CD3^+CD8^+), and the human primary CD8^+T cells (CD3^+CD8^+) were placed in a 96-well U-bottom culture plate, with 5×10^4 CD8^+T cells in each well;
2) subsequently, culture media A to E and magnetic beads coupled to an anti-CD3 antibody and an anti-CD28 antibody were added into the culture plates containing the CD8^+T cells, wherein a ratio of the number of the magnetic beads to the number of the cells was 1:1; and fresh culture media A to E were supplemented at Day 4, Day 7, Day 10 and Day 13 of cell culture; and
3) the cells were counted at Day 0, Day 7 and Day 14 of cell culture respectively, flow cytometry antibodies (CD45RA, CCR7 and CD95) for detecting TSCM were incubated, and the TSCM was detected by using a flow cytometry.

SMILES: Nc1cccc(-c2cc3c(Oc4cccc(O)c4)ncnc3[nH]2)c1 [TWS119]
- concentration range that effectively induces the formation of TSCM: 1 to 50 µM
